Assay results reported in ChEMBL document CHEMBL1201862, “PubChem BioAssay data set” (2004).
“And” between values parts separate entries of the source, which are not always exact repeats. Identical values can stand only once. The source made the active and inactive calls.

What was measured:
[1] = suppression of NO production in INS-1E cells – cell-based, Griess absorbance, dry powder, set 3, dose response (AID 488870); assay type: functional; settings: Rattus norvegicus
INS1 = experiment: suppression of NO production in INS-1E cells – cell-based, Griess absorbance, dry powder, set 2, dose response (AID 488868); assay type: functional; settings: Rattus norvegicus
Melanocortin receptor 4 = Melanocortin receptor 4 (Homo sapiens, UniProt P32245); experiment: inhibitors of MC4R cAMP signaling – cell-based, TR-FRET, biased antagonists, dose response (AID 602298); assay type: functional;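 further: antagonist potency against agonist-stimulated cAMP production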
Sequence of Melanocortin receptor 4 (P32245 whole entry): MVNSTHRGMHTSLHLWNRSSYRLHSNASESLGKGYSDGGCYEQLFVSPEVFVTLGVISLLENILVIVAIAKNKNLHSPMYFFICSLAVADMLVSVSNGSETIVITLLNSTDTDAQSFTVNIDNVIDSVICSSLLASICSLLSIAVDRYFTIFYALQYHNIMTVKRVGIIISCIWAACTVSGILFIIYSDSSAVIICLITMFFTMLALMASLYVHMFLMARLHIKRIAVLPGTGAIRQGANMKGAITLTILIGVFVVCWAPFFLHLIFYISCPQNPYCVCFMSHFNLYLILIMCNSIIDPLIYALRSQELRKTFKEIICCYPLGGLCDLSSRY

[2] = cAMP pathway inhibition in counterscreen cell line – TR-FRET cAMP detection, counter-screen for MC4R biased antagonist project, dose response (AID 602305); assay type: functional, cell-based;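 further: U2OS cells stimulated with forskolin near its EC80 as the cAMP inducer; potency is for inhibition of forskolin-stimulated cAMP signaling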
[3] = target: T1, Apoptotic protease-activating factor 1 (Homo sapiens, UniProt O14727); assay type: functional
T1 sequence (O14727 whole entry): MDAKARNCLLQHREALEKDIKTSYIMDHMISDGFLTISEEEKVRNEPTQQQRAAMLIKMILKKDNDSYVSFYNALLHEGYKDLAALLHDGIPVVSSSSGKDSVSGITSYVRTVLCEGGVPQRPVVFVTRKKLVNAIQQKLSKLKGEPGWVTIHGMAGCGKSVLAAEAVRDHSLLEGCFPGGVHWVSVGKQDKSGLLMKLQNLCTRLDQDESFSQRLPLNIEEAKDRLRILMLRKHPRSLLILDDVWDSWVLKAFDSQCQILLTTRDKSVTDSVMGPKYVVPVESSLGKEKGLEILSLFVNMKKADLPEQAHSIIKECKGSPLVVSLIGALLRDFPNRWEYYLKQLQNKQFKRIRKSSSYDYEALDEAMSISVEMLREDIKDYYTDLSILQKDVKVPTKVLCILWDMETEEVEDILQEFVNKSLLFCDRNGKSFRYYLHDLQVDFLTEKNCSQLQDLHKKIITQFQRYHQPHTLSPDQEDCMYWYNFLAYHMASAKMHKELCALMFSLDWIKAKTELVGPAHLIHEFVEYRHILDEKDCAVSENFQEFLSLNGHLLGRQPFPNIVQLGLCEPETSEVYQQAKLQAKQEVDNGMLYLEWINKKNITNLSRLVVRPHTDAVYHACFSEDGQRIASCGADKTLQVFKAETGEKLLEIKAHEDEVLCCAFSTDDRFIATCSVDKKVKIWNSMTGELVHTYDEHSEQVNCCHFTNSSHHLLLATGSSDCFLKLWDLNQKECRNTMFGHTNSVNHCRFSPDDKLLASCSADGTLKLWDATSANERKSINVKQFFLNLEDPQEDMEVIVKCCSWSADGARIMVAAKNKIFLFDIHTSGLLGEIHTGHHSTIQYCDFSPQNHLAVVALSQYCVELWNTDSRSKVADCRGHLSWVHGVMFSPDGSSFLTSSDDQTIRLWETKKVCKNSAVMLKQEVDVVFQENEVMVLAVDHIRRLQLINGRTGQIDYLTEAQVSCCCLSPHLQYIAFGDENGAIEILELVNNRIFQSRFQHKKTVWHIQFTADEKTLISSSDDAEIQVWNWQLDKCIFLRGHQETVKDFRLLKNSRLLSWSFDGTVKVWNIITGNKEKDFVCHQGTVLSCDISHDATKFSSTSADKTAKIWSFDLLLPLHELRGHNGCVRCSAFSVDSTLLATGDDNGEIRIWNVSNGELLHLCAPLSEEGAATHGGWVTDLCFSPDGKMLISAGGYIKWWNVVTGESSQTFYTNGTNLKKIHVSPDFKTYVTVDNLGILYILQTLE

[4] = target: T2, Sentrin-specific protease 8 (Homo sapiens, UniProt Q96LD8); assay type: functional
T2 sequence (Q96LD8 whole entry): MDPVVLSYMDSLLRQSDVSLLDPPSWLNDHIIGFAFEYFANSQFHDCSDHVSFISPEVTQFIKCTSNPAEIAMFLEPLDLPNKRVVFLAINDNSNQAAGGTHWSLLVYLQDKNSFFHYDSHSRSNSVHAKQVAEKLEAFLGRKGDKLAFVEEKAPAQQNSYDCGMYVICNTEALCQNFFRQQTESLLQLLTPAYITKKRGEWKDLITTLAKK

[5] = target: T2, Sentrin-specific protease 8; assay type: functional; remark: listed apart in the source
[6] = target: T3, Histone-lysine N-methyltransferase NSD2 (Homo sapiens, UniProt O96028); assay type: biochemical
T3 sequence (O96028 whole entry): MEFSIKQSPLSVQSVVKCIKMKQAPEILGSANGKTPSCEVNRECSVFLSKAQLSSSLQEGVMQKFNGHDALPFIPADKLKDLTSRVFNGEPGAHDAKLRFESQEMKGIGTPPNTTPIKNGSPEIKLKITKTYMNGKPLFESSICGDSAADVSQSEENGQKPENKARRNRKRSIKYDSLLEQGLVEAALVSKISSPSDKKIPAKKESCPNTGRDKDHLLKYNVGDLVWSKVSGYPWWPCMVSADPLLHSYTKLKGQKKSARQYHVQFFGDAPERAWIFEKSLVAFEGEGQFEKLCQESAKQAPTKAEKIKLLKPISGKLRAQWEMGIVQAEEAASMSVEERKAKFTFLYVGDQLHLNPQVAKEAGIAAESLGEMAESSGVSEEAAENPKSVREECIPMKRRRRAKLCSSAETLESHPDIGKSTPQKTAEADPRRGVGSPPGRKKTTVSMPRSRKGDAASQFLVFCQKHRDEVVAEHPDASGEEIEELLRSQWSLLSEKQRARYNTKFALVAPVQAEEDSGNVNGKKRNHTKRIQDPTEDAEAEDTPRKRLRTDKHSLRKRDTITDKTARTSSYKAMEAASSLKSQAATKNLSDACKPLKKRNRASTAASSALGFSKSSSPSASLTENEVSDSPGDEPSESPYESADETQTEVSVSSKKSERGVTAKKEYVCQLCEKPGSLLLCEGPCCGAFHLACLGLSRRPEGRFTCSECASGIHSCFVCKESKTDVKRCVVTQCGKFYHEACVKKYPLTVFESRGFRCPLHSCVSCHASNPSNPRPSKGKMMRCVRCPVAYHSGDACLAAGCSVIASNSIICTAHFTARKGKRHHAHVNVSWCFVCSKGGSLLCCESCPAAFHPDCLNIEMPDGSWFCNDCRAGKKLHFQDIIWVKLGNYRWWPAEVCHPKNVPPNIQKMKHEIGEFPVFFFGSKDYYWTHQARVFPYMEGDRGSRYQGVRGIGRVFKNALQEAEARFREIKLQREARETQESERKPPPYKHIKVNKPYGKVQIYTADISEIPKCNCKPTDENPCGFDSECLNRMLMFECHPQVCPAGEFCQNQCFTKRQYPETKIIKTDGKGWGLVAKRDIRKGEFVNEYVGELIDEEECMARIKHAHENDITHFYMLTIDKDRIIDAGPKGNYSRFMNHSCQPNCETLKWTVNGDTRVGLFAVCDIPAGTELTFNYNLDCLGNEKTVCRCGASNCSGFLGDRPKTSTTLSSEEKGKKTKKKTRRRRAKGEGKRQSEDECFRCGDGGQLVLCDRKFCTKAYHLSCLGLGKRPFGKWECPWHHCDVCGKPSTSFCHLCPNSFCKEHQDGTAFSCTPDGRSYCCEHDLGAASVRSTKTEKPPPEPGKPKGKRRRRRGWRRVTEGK

[7] = target: Tyrosyl-DNA phosphodiesterase 2 (Homo sapiens, UniProt O95551); experiment: potency against TDP2 phosphodiesterase activity – biochemical, epi absorbance, IC50, dose response (AID 743297)
Sequence of Tyrosyl-DNA phosphodiesterase 2 (O95551 whole entry): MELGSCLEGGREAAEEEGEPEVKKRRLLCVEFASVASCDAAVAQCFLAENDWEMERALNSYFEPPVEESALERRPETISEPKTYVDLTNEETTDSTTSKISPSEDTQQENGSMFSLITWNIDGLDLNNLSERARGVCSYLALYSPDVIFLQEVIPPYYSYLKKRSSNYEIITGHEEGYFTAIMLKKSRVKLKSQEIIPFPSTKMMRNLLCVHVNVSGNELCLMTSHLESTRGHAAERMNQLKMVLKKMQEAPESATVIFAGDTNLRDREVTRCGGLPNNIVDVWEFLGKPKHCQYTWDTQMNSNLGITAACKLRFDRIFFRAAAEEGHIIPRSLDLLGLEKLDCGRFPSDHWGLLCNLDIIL

[8] = target: T4, DNA dC->dU-editing enzyme APOBEC-3G (Homo sapiens, UniProt Q9HC16); experiment: inhibition of APOBEC3G ssDNA deamination – biochemical, fluorescence, single-stranded DNA substrate, SAR follow-up (AID 602136); assay type: functional; settings: read-out: IC50_Mean
T4 sequence (Q9HC16 whole entry): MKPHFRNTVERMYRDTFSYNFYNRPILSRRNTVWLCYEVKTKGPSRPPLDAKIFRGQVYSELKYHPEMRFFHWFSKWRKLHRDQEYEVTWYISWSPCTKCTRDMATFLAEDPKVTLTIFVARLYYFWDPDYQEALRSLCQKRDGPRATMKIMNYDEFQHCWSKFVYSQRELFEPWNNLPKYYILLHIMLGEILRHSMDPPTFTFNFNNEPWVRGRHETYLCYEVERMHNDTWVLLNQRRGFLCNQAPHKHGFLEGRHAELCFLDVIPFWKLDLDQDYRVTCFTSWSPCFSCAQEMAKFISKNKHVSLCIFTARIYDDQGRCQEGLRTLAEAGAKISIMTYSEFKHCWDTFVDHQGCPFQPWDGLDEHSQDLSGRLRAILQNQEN

[9] = target: DNA dC->dU-editing enzyme APOBEC-3A (Homo sapiens, UniProt P31941); experiment: SAR analysis of small molecule inhibitors of APOBEC3A DNA Deaminase via a fluorescence-based single-stranded DNA deaminase assay.; assay type: functional; settings: read-out: IC50_Mean
Sequence of DNA dC->dU-editing enzyme APOBEC-3A (P31941 whole entry): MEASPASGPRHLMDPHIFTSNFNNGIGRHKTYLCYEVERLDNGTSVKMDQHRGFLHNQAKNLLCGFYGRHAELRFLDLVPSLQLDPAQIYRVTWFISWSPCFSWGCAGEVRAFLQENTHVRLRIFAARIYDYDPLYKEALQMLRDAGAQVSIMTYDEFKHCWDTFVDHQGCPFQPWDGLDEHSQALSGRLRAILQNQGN

cells = assay type: functional
[10] = target: T5, V-type proton ATPase subunit c' (Saccharomyces cerevisiae S288c, UniProt P32842); experiment: Dose Response of Small Molecules that Regulate V-ATPase Proton Transport in Yeast using pHLuorin, Cherry Pick 2.; assay type: functional; settings: read-out: EC50_MICROM
T5 sequence (P32842 whole entry): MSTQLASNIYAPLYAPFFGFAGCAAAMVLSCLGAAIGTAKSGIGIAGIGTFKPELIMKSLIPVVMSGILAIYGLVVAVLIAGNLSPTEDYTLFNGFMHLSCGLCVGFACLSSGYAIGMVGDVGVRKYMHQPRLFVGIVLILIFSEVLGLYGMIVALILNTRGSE

[11] = target: T5, V-type proton ATPase subunit c'; experiment: Dose Response with BCECF Assay for V-ATPase inhibitors that increase vacuolar pH, Powder Set 1.; assay type: functional; settings: read-out: EC50_MICROM
[12] = target: T4, DNA dC->dU-editing enzyme APOBEC-3G; experiment: Dose Response confirmation of small molecule APOBEC3G DNA Deaminase Inhibitors via a fluorescence-based single-stranded DNA deaminase assay. [Related pubchem assays (depositor defined):AID493012, AID493028]; assay type: functional
[13] = SAR analysis of small molecule activators of Apaf-1 using a LZ-Caspase-9/Caspase-3 Fluorescent Selectivity assay - Set 2.; assay type: functional; settings: read-out: EC50_Mean
[14] = target: T1, Apoptotic protease-activating factor 1; experiment: SAR analysis of small molecule Activators of Apaf-1 in a Fluorescent assay.; assay type: functional; settings: read-out: EC50_Mean
[15] = target: T1, Apoptotic protease-activating factor 1; experiment: SAR analysis of small molecule Activators of Apaf-1 in a Fluorescent assay - set 2.; assay type: functional; settings: read-out: EC50_Mean
[16] = target: Multidrug resistance protein CDR2 (Candida albicans (strain SC5314 / ATCC MYA-2876) (Yeast), UniProt P78595); experiment: inhibition of Nile Red efflux via Candida CDR2 – S. cerevisiae AD1-8u, singleplex, Cherry Pick1 hits, dose response (AID 588604); assay type: functional
Sequence of Multidrug resistance protein CDR2 (P78595 whole entry): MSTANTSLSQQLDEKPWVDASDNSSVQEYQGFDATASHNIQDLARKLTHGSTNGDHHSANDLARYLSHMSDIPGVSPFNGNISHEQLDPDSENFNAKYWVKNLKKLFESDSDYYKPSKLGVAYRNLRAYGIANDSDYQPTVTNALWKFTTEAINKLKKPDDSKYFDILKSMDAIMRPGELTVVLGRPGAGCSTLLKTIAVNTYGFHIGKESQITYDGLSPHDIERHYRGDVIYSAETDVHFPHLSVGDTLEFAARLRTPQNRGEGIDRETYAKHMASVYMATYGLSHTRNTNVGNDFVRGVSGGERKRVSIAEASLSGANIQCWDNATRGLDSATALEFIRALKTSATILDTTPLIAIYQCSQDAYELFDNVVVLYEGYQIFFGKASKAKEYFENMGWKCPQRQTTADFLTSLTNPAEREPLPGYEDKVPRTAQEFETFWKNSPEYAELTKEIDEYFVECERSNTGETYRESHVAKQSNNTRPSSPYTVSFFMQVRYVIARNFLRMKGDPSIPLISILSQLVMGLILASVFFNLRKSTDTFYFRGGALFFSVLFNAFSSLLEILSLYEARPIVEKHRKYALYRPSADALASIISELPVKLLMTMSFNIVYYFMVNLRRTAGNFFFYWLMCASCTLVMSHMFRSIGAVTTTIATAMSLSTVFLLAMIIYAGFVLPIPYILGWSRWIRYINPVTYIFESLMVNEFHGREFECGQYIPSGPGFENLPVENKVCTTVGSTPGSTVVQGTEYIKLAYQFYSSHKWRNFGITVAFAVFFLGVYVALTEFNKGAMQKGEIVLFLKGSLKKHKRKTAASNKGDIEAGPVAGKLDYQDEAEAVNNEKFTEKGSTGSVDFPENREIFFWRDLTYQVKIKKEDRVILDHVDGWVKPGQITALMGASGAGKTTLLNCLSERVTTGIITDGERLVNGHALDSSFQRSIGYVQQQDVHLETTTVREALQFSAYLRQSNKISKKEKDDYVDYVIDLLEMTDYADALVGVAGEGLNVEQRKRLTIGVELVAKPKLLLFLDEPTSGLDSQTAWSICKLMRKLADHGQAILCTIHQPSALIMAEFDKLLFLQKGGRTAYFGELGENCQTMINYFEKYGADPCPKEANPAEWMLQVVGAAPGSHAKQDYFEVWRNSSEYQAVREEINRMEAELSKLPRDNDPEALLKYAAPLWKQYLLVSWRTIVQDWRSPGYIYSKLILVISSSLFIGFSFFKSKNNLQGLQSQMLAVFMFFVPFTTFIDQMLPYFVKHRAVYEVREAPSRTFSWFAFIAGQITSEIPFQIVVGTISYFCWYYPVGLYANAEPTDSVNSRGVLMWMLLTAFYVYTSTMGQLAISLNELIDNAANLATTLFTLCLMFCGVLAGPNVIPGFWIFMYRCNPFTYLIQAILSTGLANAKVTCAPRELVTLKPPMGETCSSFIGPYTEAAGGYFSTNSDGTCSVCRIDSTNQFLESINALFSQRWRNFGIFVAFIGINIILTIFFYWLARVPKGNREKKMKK

[17] = target: T6, Neuropeptides B/W receptor type 1 (Homo sapiens, UniProt P48145); experiment: human NPBW1 receptor blockade, IC50 – cell-based, fluorescence, dose response, set 5, late-stage follow-up (AID 588566); assay type: functional
T6 sequence (P48145 whole entry): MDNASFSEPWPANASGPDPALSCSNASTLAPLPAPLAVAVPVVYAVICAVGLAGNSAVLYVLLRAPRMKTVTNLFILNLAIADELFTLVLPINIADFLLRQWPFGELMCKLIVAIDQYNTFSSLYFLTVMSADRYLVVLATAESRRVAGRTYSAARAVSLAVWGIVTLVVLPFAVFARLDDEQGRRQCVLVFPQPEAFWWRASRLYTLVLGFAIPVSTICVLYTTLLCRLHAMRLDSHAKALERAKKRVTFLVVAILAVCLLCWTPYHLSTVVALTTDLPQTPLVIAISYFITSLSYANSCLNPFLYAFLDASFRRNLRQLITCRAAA

[18] = target: Melanin-concentrating hormone receptor 1 (Homo sapiens, UniProt Q99705); experiment: Late-stage fluorescence-based counterscreen for antagonists of the G-protein coupled receptor 7 (GPR7): cell-based dose response assay to identify antagonists of the melanin-concentrating hormone receptor 1 (MCHR1) Set 5.; assay type: functional
Sequence of Melanin-concentrating hormone receptor 1 (Q99705 whole entry): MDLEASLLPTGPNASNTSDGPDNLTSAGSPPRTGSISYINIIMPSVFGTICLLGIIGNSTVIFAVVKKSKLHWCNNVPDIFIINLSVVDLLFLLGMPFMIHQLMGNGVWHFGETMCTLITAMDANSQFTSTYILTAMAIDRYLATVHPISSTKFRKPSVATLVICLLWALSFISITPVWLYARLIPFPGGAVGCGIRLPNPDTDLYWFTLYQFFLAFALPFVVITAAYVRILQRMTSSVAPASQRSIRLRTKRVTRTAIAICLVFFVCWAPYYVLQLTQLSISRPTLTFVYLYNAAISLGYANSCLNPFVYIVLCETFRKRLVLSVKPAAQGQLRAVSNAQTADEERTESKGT

[19] = target: Protein disulfide-isomerase (Homo sapiens, UniProt P07237); experiment: inhibition of PDI-driven insulin aggregation – biochemical, turbidity, absorbance, cherry-picked samples, dose response (AID 602350); assay type: functional
Sequence of Protein disulfide-isomerase (P07237 whole entry): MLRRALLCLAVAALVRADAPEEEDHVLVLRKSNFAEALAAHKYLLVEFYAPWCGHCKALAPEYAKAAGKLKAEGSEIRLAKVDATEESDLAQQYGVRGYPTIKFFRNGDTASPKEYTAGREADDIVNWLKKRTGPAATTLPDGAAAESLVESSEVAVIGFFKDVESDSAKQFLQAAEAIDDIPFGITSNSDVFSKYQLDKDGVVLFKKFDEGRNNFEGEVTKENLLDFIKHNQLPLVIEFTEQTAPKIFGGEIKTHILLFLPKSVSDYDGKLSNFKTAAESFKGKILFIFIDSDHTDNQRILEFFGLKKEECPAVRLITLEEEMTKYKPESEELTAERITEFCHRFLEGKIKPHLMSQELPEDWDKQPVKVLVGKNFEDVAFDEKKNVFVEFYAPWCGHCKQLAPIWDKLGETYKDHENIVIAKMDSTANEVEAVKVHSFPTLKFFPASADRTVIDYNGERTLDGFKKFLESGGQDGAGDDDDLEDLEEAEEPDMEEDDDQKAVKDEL

COc1ccc(S(=O)(=O)N(C)C[C@@H]2Oc3c(NC(=O)NC4CCCCC4)cccc3C(=O)N([C@@H](C)CO)C[C@H]2C)cc1
AC50 [1]: 64.5 µM (active)
AC50 (INS1): 44.5 µM (active)

Cn1ccs/c1=N\C(=O)c1ccc(S(C)(=O)=O)c([N+](=O)[O-])c1
IC50 (Melanocortin receptor 4): > 64.6 µM (inactive)
IC50 [2]: > 64.6 µM (inactive)

C[n+]1cccc2c(Br)ccc([O-])c21
IC50 [3]: 92 µM (active)
IC50 [4]: 4.18 µM (active)
IC50 [5]: 1.64 µM (active)
AC50 [6]: 7.45 µM (active)
IC50 [7]: > 42.8 µM (inactive)

Cc1cc(C(=O)CSc2nnc3scc(-c4ccccc4)n23)c(C)n1-c1cc(F)ccc1F
IC50 [8]: > 99 µM (inactive)
IC50 [9]: > 99 µM (inactive)

O=C(c1ccc([N+](=O)[O-])o1)N1CCN(c2nc3ccc(F)cc3s2)CC1
IC50 (cells): < 0.1 µM (active)
EC50 [10]: 3.64 µM (active)
EC50 [11]: 0.384 µM (active)

O=C(O)C1CC(c2ccc(F)cc2)=NO1 (configuration not stated)
IC50 [12]: 10.9 µM (active)
EC50 [13]: > 100 µM (inactive) and > 99 µM (inactive)
EC50 [14]: 6.69 µM (active)
EC50 [15]: 6.39 µM (active) and 3.86 µM (active) and > 99 µM (inactive)

COc1ccc2nccc(/C=C/c3ccnc4ccc(OC)cc34)c2c1
EC50 [16]: 14 µM (active)

CCOc1ccc(Sc2cnn(Cc3cccc4ccccc34)c(=O)c2Cl)cc1
IC50 [17]: 5 µM (active)
IC50 [18]: > 20 µM (inactive)

C[C@H](CO)N1C[C@H](C)[C@@H](CN(C)S(=O)(=O)c2ccc(F)cc2)Oc2ccc(NC(=O)Cc3cn(C)c4ccccc34)cc2C1=O
AC50 [19]: 19.5 µM (active)
